System: tumor that expresses high levels of CXCL12
Assay: Tumor growth in mice with a subcutaneous CXCL12-expressing tumor, AMD3100 followed by cisplatin
Format: in vivo
Description: Mice are injected with tumor cells (subcutaneous injection) from a tumor that expresses high levels of CXCL12 and a tumor allowed to develop. Once the tumor has formed, the mice are injected (subcutaneous in the same flank as the tumor) with AMD3100 or vehicle, once a day for 5 days.
One to three days after the final dose of AMD3100, mice are injected via intraperitoneal injection with a therapeutically effective amount of cisplatin 18 hours prior to assay of tumor growth.

SMILES | Tumor growth (cisplatin intraperitoneal 18 hours prior to assay, growth resumes soon after treatment is discontinued in mice not administered AMD3100) | Delay in tumor growth, co-treatment versus cisplatin alone (AMD3100 subcutaneous once a day for 5 days, then cisplatin intraperitoneal one to three days after the final dose)
N.N.[Cl][Pt][Cl] [cisplatin] | delayed | –
c1cc(CN2CCCNCCNCCCNCC2)ccc1CN1CCCNCCNCCCNCC1 [AMD3100] | – | synergistic effect

From patent US20180117005A1, “COMPOSITIONS FOR THE TREATMENT OF CANCER” (THE GENERAL HOSPITAL CORPORATION, priority 2015, published 2018)
